Results: PMC8913300, “Two distinct classes of cochaperones compete for the EEVD motif in heat shock protein 70 to tune its chaperone activities” (The Journal of Biological Chemistry, 2022)
Values belong to the substance of their own block, whether it stands above or below them.

How the values were obtained:
DnaJB4 [1] = target: T1, DnaJB4 (Homo sapiens, UniProt Q9UDY4); test: DnaJB4 FP competition (displacement of Hsp72 tracer); format: binding; conditions: 100 μM peptide, 5 μM DnaJB4, 20 nM Hsp72 tracer, 30 min room temperature; for % tracer displacement: relative to DMSO control, mean ± SD (n = 4)
T1 construct: 6-His with TEV-cleavable linker (N, cleaved yes); made in house; host or cells: Escherichia coli BL21 (DE3) Rosetta
Method: (§1) All FP experiments were performed in 384-well, black, low-volume, round-bottom plates at a final assay volume of 18 μl (Corning 4511). Polarization values in millipolarization units (mP) were measured at an excitation wavelength of 485 nm and an emission wavelength of 525 nm, with 100 flashes per read using a Spectramax M5 plate reader (Molecular Devices). All experiments were performed 2 times in quadruplicate. Experimental data were analyzed using GraphPad Prism 9. Saturation binding data were background subtracted, and curves were fit using the model [Agonist] versus response (three parameters). For competition experiments, data were background subtracted to tracer alone and normalized to DMSO control to determine relative tracer displacement.
Unlabeled peptides were assessed for the ability to compete with the Hsp72 tracer. Briefly, 100 μM peptides were incubated with 5 μM DnaJB4 and 20 nM Hsp72 tracer in JDP binding buffer (see above). The plate was covered from light and allowed to incubate at room temperature for 30 min prior to reading.

CHIP = target: T2, CHIP (Homo sapiens, UniProt Q9UNE7); test: CHIP FP competition (displacement of Hsp72 tracer); format: binding; conditions: 100 μM peptide, 1.58 μM CHIP, 20 nM Hsp72 tracer, 30 min room temperature
T2 construct: 6-His with TEV-cleavable linker (N, cleaved yes); made in house; host or cells: E. coli BL21(DE3)
T2 sequence (Q9UNE7 1-303): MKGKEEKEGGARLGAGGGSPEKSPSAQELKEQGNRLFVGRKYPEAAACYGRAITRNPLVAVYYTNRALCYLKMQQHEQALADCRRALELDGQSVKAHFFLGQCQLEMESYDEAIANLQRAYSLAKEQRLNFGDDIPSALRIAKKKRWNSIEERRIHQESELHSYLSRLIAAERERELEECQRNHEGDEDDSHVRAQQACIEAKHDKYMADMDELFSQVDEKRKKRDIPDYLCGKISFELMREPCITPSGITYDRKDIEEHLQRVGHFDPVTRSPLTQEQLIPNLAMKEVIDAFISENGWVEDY
Method: as §1
Mixtures of 1.58 μM CHIP and 20 nM Hsp72 tracer were incubated with 100 μM unlabeled competitor peptides in CHIP FP assay buffer (50 mM Hepes pH 7.4, 50 mM KCl, 0.01% Triton X-100). The plate was covered from light and allowed to incubate at room temperature for 30 min prior to reading.

DnaJB4 [2] = target: T1, DnaJB4; test: Differential scanning fluorimetry of DnaJB4 with chaperone peptides; format: binding; conditions: 5 μM DnaJB4, 100 μM peptide; for DnaJB4 apparent melting temperature (Tm,app): 5× Sypro Orange, JDP binding buffer, mean ± SD (n = 4), without peptide 57 ± 0.06 °C
Method: DSF was performed with a 15-μl assay volume in 384-well Axygen quantitative PCR plates (Fisher Scientific) on a qTower ([3]) real-time PCR thermal cycler (Analytik Jena). Fluorescence intensity readings were taken over 70 cycles in “up-down” mode, where reactions were heated to desired temperature and then cooled to 25 °C before reading. The temperature was increased 1 °C per cycle. Each well contained 5 μM DnaJB4, 5 × Sypro Orange dye (Thermo Fisher), and 100 μM of peptide in JDP binding buffer. Fluorescence intensity data were truncated between 45 and 70 °C, plotted relative to temperature, and fit to a Boltzmann Sigmoid in Prism 9.0 (GraphPad). DnaJB4 apparent melting temp (Tm,app) was calculated based on the following equation: Y = Bottom + ((Top-Bottom)/(1 + exp(Tm-T/Slope))).

Hsp72 ATPase activity = test: Intrinsic ATPase activity of Hsp72 variants (malachite green); format: biochemical; conditions: 1 μM Hsp72, 2.5 mM ATP, 1 h at 37 °C, mean ± SD (n = 3)
Method: (§2) ATPase assays were carried out using the malachite green assay as described ([14], [83]). In brief, 1 μM Hsp72 and various concentrations of DnaJB4 were added to clear 96-well plates, and the reactions were initiated by addition of 2.5 mM ATP. Reactions were allowed to proceed for 1 h at 37 °C, after which they were developed using malachite green reagent and quenched with sodium citrate. Plate absorbance was measured at 620 nm, and a standard curve of sodium phosphate was used to convert the absorbance values to pmol ATP/μM Hsp72/min. Vmax and Km, app were derived as fit parameters to a modified Michaelis–Menten model (ATPase rate=Vmax∗[DnaJB4]/(Km, app+[DnaJB4])) where Vmax reflects the maximal increased ATP hydrolysis conferred by DnaJB4 binding and Km,app represents the half-maximal concentration of DnaJB4 binding to and stimulating the ATPase activity of Hsp72.

[3] = tested on: denatured Renilla luciferase; test: Luciferase refolding by Hsp72 variants in the presence of DnaJB4; format: biochemical; conditions: 1 μM Hsp72, 100 nM denatured luciferase, DnaJB4 titration, 1 h at 37 °C
Method: (§3) Experiments were performed as described ([14]). Briefly, Renilla luciferase (Promega) was denatured in 8 M GdnHCl for 2 h at room temperature. Hsp72 (1 μM) and denatured luciferase (100 nM) were diluted into a working concentration in buffer containing an ATP regenerating system (23 mM Hepes, 120 mM KAc, 1.2 mM MgAc, 15 mM DTT, 61 mM creatine phosphate, 35 units/ml creatine kinase, and 5 ng/μl bovine serum albumin, pH 7.4). A titration series of DnaJB4 was added, and the reaction was initiated with the addition of 2.5 mM ATP. For competition assays with DnaJB4, complexes of Hsp72 (1 μM), denatured luciferase (100 nM), and DnaJB4 (120 nM) were incubated with either a titration of CHIP or 10 μM of indicated TPR protein. In all cases, the assay was allowed to incubate for 1 h at 37 °C in white, 96-well flat-bottom plates (Corning 3990). Luminescence was measured using the SteadyGlo luminescence reagent (Promega), and percent refolded luciferase was calculated using a standard curve of 100 to 0 nM native luciferase.

[4] = tested on: denatured Renilla luciferase; test: Luciferase refolding by Hsp72 variants in the presence of DnaJA2; format: biochemical; conditions: 1 μM Hsp72, 100 nM denatured luciferase, 1 h at 37 °C
Hsp72 I637A = test: DnaJB4 stimulation of ATPase activity of Hsp72 I637A (malachite green); format: biochemical
Method: as §2

[5] = tested on: Hsp90⍺ ubiquitination by CHIP; test: In vitro ubiquitination of Hsp90⍺ by CHIP in the presence of DnaJB4; format: biochemical; conditions: 1 μM CHIP, 1 μM FAM-labeled Hsp90⍺, increasing DnaJB4, 10 min room temperature
Method: (§4) Four 4 × stock solutions were prepared containing (i) Ube1 (R&D Systems) + UbcH5c/UBE2D3 (R&D Systems) (400 nM Ube1 and 4 μM UbcH5c), (ii) Ubiquitin (R&D Systems) (1 mM Ub), (iii) CHIP + substrate + DnaJB4 (4 μM CHIP, 4 μM substrate, varying concentrations of DnaJB4), and (iv) ATP + MgCl2 (10 mM ATP and 10 mM MgCl2) in ubiquitination assay buffer (50 mM Tris pH 8.0, 15 mM NaCl). CHIP + substrate + DnaJB4 solutions were allowed to equilibrate at room temperature for 30 min prior to initiating the reaction. Ubiquitination reactions were generated by adding 10 μl of each 4 × stock, in order from 1 to 4, for a final volume of 40 μl(100 nM Ube1, 1 μM UbcH5c, 250 μM ubiquitin, 2.5 mM ATP, 2.5 mM MgCl2, 1 μM CHIP and 1 μM substrate). […] Samples were separated by SDS-PAGE on 4% to 20% polyacrylamide gels (Bio-Rad) and analyzed by in-gel fluorescence on a Chemidoc Imager (Bio-Rad) using the SYBR green fluorescence setting or by staining with Coomassie blue reagent. Quantitation of substrate ubiquitination was performed by densitometry analysis in ImageJ (NIH), which was thresholded to a no-CHIP control.
(§5) Substrates for in vitro ubiquitination assays were labeled with 6-carboxyfluorescein (FAM) to enable in-gel fluorescence measurement of ubiquitination as described ([35]). […]

Hsp70–CHIP complex = test: In vitro ubiquitination of Hsc70 by CHIP in the presence of DnaJB4; format: biochemical; conditions: 1 μM CHIP, 1 μM FAM-labeled Hsc70, increasing DnaJB4, 10 min room temperature
Method: as §4, §5

[6] = tested on: MAPT/tau ubiquitination by CHIP; test: In vitro ubiquitination of MAPT/tau by CHIP in the presence of DnaJB4; format: biochemical; conditions: 1 μM CHIP, tau substrate, 30 min room temperature
Method: Four 4 × stock solutions were prepared containing (i) Ube1 (R&D Systems) + UbcH5c/UBE2D3 (R&D Systems) (400 nM Ube1 and 4 μM UbcH5c), (ii) Ubiquitin (R&D Systems) (1 mM Ub), (iii) CHIP + substrate + DnaJB4 (4 μM CHIP, 4 μM substrate, varying concentrations of DnaJB4), and (iv) ATP + MgCl2 (10 mM ATP and 10 mM MgCl2) in ubiquitination assay buffer (50 mM Tris pH 8.0, 15 mM NaCl). CHIP + substrate + DnaJB4 solutions were allowed to equilibrate at room temperature for 30 min prior to initiating the reaction. Ubiquitination reactions were generated by adding 10 μl of each 4 × stock, in order from 1 to 4, for a final volume of 40 μl(100 nM Ube1, 1 μM UbcH5c, 250 μM ubiquitin, 2.5 mM ATP, 2.5 mM MgCl2, 1 μM CHIP and 1 μM substrate). Reactions were incubated at room temperature (10 min for chaperone ubiquitination, 30 min for tau ubiquitination), quenched in 20 μl 3 × SDS-PAGE loading buffer (188 mM Tris-HCl pH 6.8, 3% SDS, 30% glycerol, 0.01% bromophenol blue, 15% β-mercaptoethanol), and heated to 95 °C for 5 min. Samples were separated by SDS-PAGE on 4% to 20% polyacrylamide gels (Bio-Rad) and analyzed by in-gel fluorescence on a Chemidoc Imager (Bio-Rad) using the SYBR green fluorescence setting or by staining with Coomassie blue reagent. Quantitation of substrate ubiquitination was performed by densitometry analysis in ImageJ (NIH), which was thresholded to a no-CHIP control. […]

Hsp72 ΔEEVD = test: DnaJB4 stimulation of ATPase activity of Hsp72 ΔEEVD (malachite green); format: biochemical; conditions: Hsp72 ΔEEVD mutant
Method: as §2

WT Hsp72 = test: DnaJB4 stimulation of ATPase activity of WT Hsp72 (malachite green); format: biochemical
Method: as §2

Hsp72–DnaJB4 complex = test: Luciferase refolding by Hsp72/DnaJB4 in the presence of TPR cochaperones; format: biochemical; conditions: 1 μM Hsp72, 100 nM denatured luciferase, 120 nM DnaJB4; CHIP titration or 10 μM TPR protein; 1 h at 37 °C
Method: as §3

T1 sequence (Q9UDY4 whole entry): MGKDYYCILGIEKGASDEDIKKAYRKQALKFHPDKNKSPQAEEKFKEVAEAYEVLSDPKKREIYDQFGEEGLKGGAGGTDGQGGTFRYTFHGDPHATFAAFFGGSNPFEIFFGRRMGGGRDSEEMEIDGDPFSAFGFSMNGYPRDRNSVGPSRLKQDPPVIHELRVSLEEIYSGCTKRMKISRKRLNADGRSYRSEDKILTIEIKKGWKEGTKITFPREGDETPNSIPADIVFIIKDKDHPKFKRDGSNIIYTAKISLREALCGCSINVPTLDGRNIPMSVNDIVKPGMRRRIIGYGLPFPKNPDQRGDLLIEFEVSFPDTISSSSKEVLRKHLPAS

Substance: GSGPTIEEVD [Hsp72, unlabeled, N-acetylated 10-mer peptide corresponding to the C terminus of Hsp72/HSPA1A]
% tracer displacement (DnaJB4 [1]): 40.2 ± 4.6% | DnaJB4 apparent melting temperature (Tm,app) (DnaJB4 [2]): 58 ± 0.21 °C | positive shift in the melt curves (DnaJB4 [2]; versus no peptide): 1 to 2 °C

Substance: Hsp72 ΔEEVD: mutant of full-length Hsp72 in which the EEVD motif was deleted
intrinsic ATPase activity (Hsp72 ATPase activity): 4.6 ± 1.9 pmol ATP/min | ability to coordinate with DnaJB4 in luciferase refolding [3]: nearly completely impaired

Substance: Hsp90β: unlabeled, N-acetylated 10-mer peptide corresponding to the C terminus of Hsp90β
% tracer displacement (DnaJB4 [1]): −1.3 ± 2.2% | DnaJB4 apparent melting temperature (Tm,app) (DnaJB4 [2]): 57 ± 0.20 °C

Substance: Hsp72 I637A: full-length Hsp72 with point mutation of the critical P5 isoleucine residue
intrinsic ATPase activity (Hsp72 ATPase activity): 15.8 ± 3.9 pmol ATP/min | luciferase refolding in the presence of DnaJA2 [4]: comparably with WT | ability to coordinate with DnaJB4 in luciferase refolding [3]: nearly completely impaired

Substance: DnaJB4: representative class B J-domain protein, recombinant, full length
Vmax,app above baseline (Hsp72 I637A; Hsp72 I637A): ~2 fold | Vmax,app (Hsp72 I637A; Hsp72 I637A 1 μM, DnaJB4 titration, 2.5 mM ATP, 1 h at 37 °C, Michaelis–Menten fit): 23.9 ± 3.6 pmol ATP/min | Km (Hsp72 I637A; Hsp72 I637A 1 μM, DnaJB4 titration, Michaelis–Menten fit, read-out: Km,app): ~0.01 µM | effect on Hsp90 ubiquitination by CHIP [5]: no effect | effect on Hsp70 ubiquitination by CHIP (Hsp70–CHIP complex): dose-dependent inhibition | effect on ubiquitination of Hsc70 and tau by CHIP [6]: suppressed | stimulation of ATPase activity (Hsp72 ΔEEVD): unable to stimulate | stimulation of Vmax,app over baseline (WT Hsp72; WT Hsp72): ~4 fold | maximum ATPase activity (Vmax,app) (WT Hsp72; WT Hsp72 1 μM, DnaJB4 titration, 2.5 mM ATP, 1 h at 37 °C, Michaelis–Menten fit): 37.8 ± 3.5 pmol ATP/min | Km (WT Hsp72; WT Hsp72 1 μM, DnaJB4 titration, Michaelis–Menten fit, read-out: half-maximal concentration (Km,app)): ~0.06 µM

Substance: WT Hsp72: full-length recombinant Hsp72/HSPA1A
intrinsic ATPase activity (Hsp72 ATPase activity): 10.9 ± 2.8 pmol ATP/min

Now from value to substance, other results behind:

binding to DnaJB4 in FP competition relative to WT Hsp72 peptide (DnaJB4 [1]): drastically reduced binding
Substance: GSGPTIEEVD-CONH2 [peptide with an amidated Hsp72 C terminus]
binding to CHIP in FP competition relative to WT Hsp72 peptide (CHIP): carboxylate was important for binding to CHIP

binding to DnaJB4 in FP competition relative to WT Hsp72 peptide (DnaJB4 [1]): significantly weakened affinity
Substance: TIEEVD

% tracer displacement (DnaJB4 [1]): −7.7 ± 1.5% | DnaJB4 apparent melting temperature (Tm,app) (DnaJB4 [2]): 57 ± 0.15 °C
Substance: Hsp90⍺: unlabeled, N-acetylated 10-mer peptide corresponding to the C terminus of Hsp90⍺

binding to DnaJB4 in FP competition relative to WT Hsp72 peptide (DnaJB4 [1]): further worsened it
Substance: IEEVD

effect on client (luciferase) refolding by Hsp72–DnaJB4 (Hsp72–DnaJB4 complex): suppressed luciferase refolding
Substance: HOP: Hsc70 organizing protein, TPR cochaperone
